Results from US20100190151A1 (priority 2003, published 2010).

System: DNA polymerase
Details: surface-anchored primer/template DNA, stepwise reactions, FIG. 2(b); Cy5-dCTP detected by spFRET with Cy3-dUTP
Description: FIG. 2a(1) is an image of the slide surface: Annealed primer/template DNA molecules detected by Cy3 fluorescence from the labeled primer. Scale bar, 10 µm. […] FIG. 2a(3) is an image of the slide surface: Labeled nucleotide fluorescence after successful incorporation by DNA polymerase. Note; prior to the incorporation reaction, the primer fluorescence shown in FIG. 2a(1) was photo-bleached. After incubation of template DNA molecules with DNA polymerase and a labeled dNTP, the sequencing chamber was flushed to prevent fluorescent detection of unincorporated labeled dNTPs. […] FIG. 2a(5) is an overlay of the primer/template positions with the labeled nucleotide positions.
Observations of single-molecule fluorescence can be made using a conventional microscope equipped with total internal reflection (TIR) illumination. […] First, the surface of a quartz slide is chemically treated to specifically anchor template nucleic acid molecules while preventing non-specific binding of labeled dNTPs present in the sequencing reaction. A plastic flow cell is then attached to the surface of the slide to facilitate the exchange of buffers and reagents. Next, biotinylated oligonucleotides, serving as sequencing templates, are annealed to a fluorescently labeled primer. Template nucleic acid molecules are bound to the slide surface via streptavidin and biotin at a surface density low enough to resolve single nucleic acid molecules. The primed templates are detected via their fluorescent tags and their locations are recorded for future reference. After noting the location of each template nucleic acid molecule, their fluorescent tags are photo-bleached. Labeled dNTPs and polymerase (or polymerizing agent) are then washed in and out of the flow cell, one dNTP at a time, while the known locations of the template nucleic acid molecules are monitored for fluorescence, an indication that the primer annealed to the template nucleic acid molecule had been extended by one labeled nucleotide.

Question: With `CCN1/C(=C/C=C/C2=[N+](CCCCCC(=O)NCC#Cc3cn(C4CC(O)C(COP(=O)([O-])OP(=O)([O-])OP(=O)([O-])[O-])O4)c(=O)nc3N)c3cc(S(=O)(=O)O)ccc3C2(C)C)C(C)(C)c2ccc(S(=O)(=O)[O-])cc21.[Li+].[Li+].[Li+].[Li+]` (stereo not shown) [Cy3-dCTP] as the molecule, how does the “incorporation of labeled dNTP by DNA polymerase (selectivity and fidelity)” value (“incorporation … (selectivity and fidelity)” below) read?
Answer: correctly refusing to incorporate

Question: For Cy3-dUTP, which “incorporation … (selectivity and fidelity)” value is on record?
Answer: correctly incorporated

Question: With Cy5-dCTP as the molecule, how does the “incorporation … (selectivity and fidelity)” value read?
Answer: correctly incorporated

Question: How did the “incorporation … (selectivity and fidelity)” value turn out when Cy5-dUTP was run?
Answer: correctly refusing to incorporate
